From patent publication US12702671B2, “Calcineurin inhibitors of the setron family for the treatment of hearing loss” (SENSORION, priority 2015, dated 2026)
Counter-ions that a name gives are not always drawn.

Legend:
[1] = test system: acoustic trauma induced hearing loss; assay: Auditory brainstem response (ABR) thresholds after acoustic trauma; type: in vivo, Wistar rats
Method: (§1) All experiments were performed using 7 week old male Wistar rats (CERJ, Le Genest, France) in accordance with the French Ministry of Agriculture regulations and European Community Council Directive no. 86/609/EEC, OJL 358. The rats were fed a standard diet ad libitum and maintained on a 12 h light-dark cycle.
(§2) Auditory Brainstem Reponses (ABR) and Distortion Product Otoacoustic Emissions (DPOAE) were recording using a RZ6 Auditory Workstation (Tucker-Davis Technologies, Alachua, FL, USA) with animals deeply anesthetized using 90 mg/kg ketamine and 10 mg/kg xylazine and placed on a 35° C. recirculating heating pad inside a sound attenuating cubicle (Med Associates Inc., St. Albans, VT, USA) throughout the experiment.
For ABR recordings, three stainless steel needle electrodes were placed subdermally over the vertex, the right mastoid and right hind leg of each animal. Tone-pips (5 msec duration presented at a rate of 21/s) at 8, 16 and 24 kHz were delivered to the right ear using a calibrated MF-1 speaker in closed-field configuration (Tucker-Davis Technologies, Alachua, FL, USA) at attenuating intensity until no reproducible response could be recorded. Close to the ABR threshold, the responses to 1000 acoustic stimuli in 5 dB steps were averaged. Responses were low-pass filtered at 3 kHz.
(§3) Animals were exposed to 121 dB octave band noise (8-16 kHz) for 2 h in groups of 4 rats, placed in individual compartments of a custom built circular cage placed on a 30 cm diameter platform rotating at 3 turns/minute (Aqila Innovation, Valbonne, France). The calibrated octave band noise generated by the RZ6 SigGen software was further amplified by a Crown D-75 amplifier in bridge mode (Crown Audio, Elkhart, IN, USA) and delivered by four Beyma CP16 compression tweeters (Acustica Beyma S. L., Moncada, Valencia, Spain) positioned 39 cm above the rotating platform, each 10 cm from the platform center.
(§4) Animals were treated by intraperitoneal injection daily for 14 days beginning immediately after acoustic trauma induction and subsequently repeated every 24 hours. The setron compounds granisetron HCl, ondansetron HCl, tropisetron HCl and azasetron HCl (Tocris Bioscience, Bristol, UK) were delivered dissolved in saline solution (1.6 mL/kg) while Tacrolimus (Selleck Chemicals, Houston, TX, USA) was dissolved in solution composed of 10% ethanol-100%/10% Kolliphor EL/1% Tween 80/79% saline (1.0 mL/kg). Placebo treated animals received injections of 1.6 mL/kg saline following the same treatment schedule.
(§5) Statistical analysis was performed using two-way ANOVA (Audiometry data: frequency and treatment group. Cochleograms: normalized distance from apex and treatment group) followed by Holm-Sidak post-hoc test for multiple comparisons. Results are given as mean±SEM and a p value less than or equal to 0.05 considered significant.
(§6) Baseline line audiometry (ABR and DPOAE measures) was performed for each animal 3 days before acoustic trauma was induced. Subsequently, audiometry measures were repeated 24 h and 14 days after acoustic trauma.
(§7) To quantify and compare the difference in treatment effects between groups while taking into account individual baseline and trauma variability, the hearing loss (ABR threshold shift & DPOAE amplitude loss) at D14 relative to baseline, as well as the functional recovery of hearing from 24 h to D14 (ABR threshold shift & DPOAE amplitude loss) were determined for all treatment groups.

[2] = test system: acoustic trauma induced hearing loss; assay: Distortion product otoacoustic emissions (DPOAE) amplitudes after acoustic trauma; type: in vivo, Wistar rats
Method: as §1, §2
DPOAEs were recorded and using ER10B+ Low Noise DPOAE microphone (Etymotic Research, Inc., Elk Grove Village, IL, USA) with acoustic stimuli delivered by two calibrated MF-1 speakers in closed-field configuration (Tucker-Davis Technologies, Alachua, FL, USA). DPOAEs were recorded at fixed stimulus levels (L1=L2=70 dB SPL), with an f2/f1 ratio of 1.2. Responses were recorded at 4, 8, 16, 24 and 32 kHz.
as §3, §4, §5, §6, §7

[3] = day 14, i.p. daily for 14 days after acoustic trauma
[4] = i.p. daily for 14 days after acoustic trauma, same doses as E4

Structure (SMILES): CN1C(=O)COc2c(C(=O)NC3CN4CCC3CC4)cc(Cl)cc21 (centres unmarked) [azasetron HCl, N-(1-azabicyclo[2.2.2]octan-8-yl)-6-chloro-4-methyl-3-oxo-1,4-benzoxazine-8-carboxamide]
- reduction of ABR threshold shifts compared to placebo treatment [1, 3]: 35-60%
- ABR threshold recovery from 24 h to day 14 compared to placebo [1, 4]: better ABR threshold recovery
- hearing outcomes (ABR thresholds and DPOAE amplitudes) at 14 days after acoustic trauma compared to placebo [1, 4]: better hearing outcomes across all frequencies
- ABR threshold shift from baseline to day 14 compared to placebo ([1]; i.p. daily for 14 days from immediately after 121 dB trauma, azasetron HCl 4.22, ondansetron HCl 4, tropisetron HCl 3.5, granisetron HCl 3.8, Tacrolimus 1.5 mg/kg): significantly lower ABR threshold shifts
- ABR threshold improvement graded by typical clinical audiological criteria (Furuhashi et al. 2002) ([1]; placebo group only "slight improvement"): marked improvement to complete recovery
- reduction of DPOAE amplitudes loss compared to placebo treatment [2, 3]: ~ 60%
- DPOAE amplitude loss from baseline to day 14 compared to placebo [2, 4]: significantly reduced loss of DPOAE amplitudes
- recovery of DPOAE amplitudes from 24 h post trauma to day 14 compared to placebo [2, 4]: significantly improved recovery of DPOAE amplitudes
